Data as given in patent publication US20260091050A1, “ADVANTAGEOUS ANTI-HCV COMBINATION THERAPY” (Atea Pharmaceuticals, Inc., priority 2021, published 2026).
“And” between values parts separate entries of the source, which are not always exact repeats. Equal entries are not always repeated. Where two headings read alike, the source gives them in different places.

Experiments:
[1] = Stability under refrigerator conditions (5 ± 3° C.) of Compound 1-A over 9 months; type: physicochemical
Experimental: Three conditions were tested: accelerated stability (40±2° C./[…]) over a 6-month time period, ambient stability (25±2° C./[…]) over a 9-month period, and stability under refrigerator conditions (5±3° C.) over a 9-month time period. The results for accelerated stability, ambient stability, and refrigerator conditions are shown in Table 23, Table 24, and Table 25, respectively.

[2] = Heart and liver tissue levels of active triphosphate 4 hours after oral Compound 1-A, dog; type: in vivo; details: 4 hours after single oral dose
Experimental: (§1) High levels of the active TP were measured in the liver of all species tested.

[3] = Plasma levels of Compound 1 and metabolites after single oral dose of Compound 1-A, monkey; type: in vivo; details: for Compound 1 Tmax: Monkey, plasma
HCV = details: cited from earlier work; for viral load reduction, individual: cirrhotic
GT1 HCV [4] = assay: Single ascending dose study of Compound 1-A in GT1-HCV infected patients (Part B); type: in vivo, human; details: for Mean Max Reduction of HCV RNA from baseline: GT1b HCV patients
Experimental: Subjects in Part B received a single dose of Compound 1-A in the fasting state. Patients were confined to the clinic from Day −1 to Day 6.
Part B was initiated after the safety (through Day 5) and plasma pharmacokinetic (through 24 h) data review from Cohort 3a in Part A. Available safety data (through Day 5) and pharmacokinetic data (through 24 h) was reviewed for the first cohort in Part B (Cohort 1b) before enrolling subsequent Part B cohorts. Subsequent Part B cohorts were only dosed following review of available safety and pharmacokinetic data from the respective doses in Part A as well as available safety (through Day 5) from the prior Part B cohorts.
Patients infected with HCV were treatment-naïve, non-cirrhotic GT1-infected subjects with a viral load of ≥5 log10 IU/mL.
Baseline was defined as the mean of Day −1 and Day 1 (pre-dose). […] The mean maximum HCV RNA reduction 24 hours post-dose following a single 300 mg dose was 1.7 log10 IU/mL and this compares to a −2 log 10 IU/mL reduction after 1 day of 400 mg of sofosbuvir monotherapy in GT1a HCV-infected subjects. The mean maximum HCV RNA reduction 24 hours post-dose following a single 100 mg dose was 0.8 log10 IU/mL. The mean 10 maximum HCV RNA reduction was 2.2 log10 IU/mL following a single 400 mg dose.

GT3 HCV = assay: 600 mg QD for 7 days in non-cirrhotic GT3 HCV-infected patients (Part D); type: in vivo, human
Experimental: (§2) Doses were administered as the Compound 1-A salt base. The free base Compound 1 equivalent is often given in parenthesis.
(§3) Part C was a randomized, double-blind, placebo-controlled MAD study divided into three cohorts. […] The dose escalation only proceeded following satisfactory review of the data.
(§4) HCV-infected patients were treatment-naïve with HCV RNA ≥5 log 10 IU/mL. HCV RNA was quantified using COBAS® AmpliPrep TaqMAN® v2.0 with LLQ of 15 IU/mL. Plasma drug levels were measured using LC-MS/MS. […] Mean ages of enrolled subjects were 44, 39, and 56 years in the non-cirrhotic GT1b 600 mg dose cohort, non-cirrhotic GT3 cohort, and the cirrhotic cohort, respectively.

GT1 HCV [5] = assay: Multiple dose study, 7 days QD, non-cirrhotic GT1 HCV-infected patients (Part C); type: in vivo, human
Experimental: as §2, §3, §4

[6] = Heart and liver tissue levels of active triphosphate 4 hours after oral Compound 1-A, rat; type: in vivo; details: 4 hours after single oral dose
Experimental: as §1

[7] = 600 mg of Compound 1-A, GT3, non-cirrhotic (n = 6)
[8] = 600 mg of Compound 1-A, GT1, non-cirrhotic (n = 6)

CNc1nc(N)nc2c1ncn2[C@@H]1O[C@H](CO[P@@](=O)(N[C@@H](C)C(=O)OC(C)C)Oc2ccccc2)[C@@H](O)[C@@]1(C)F [Compound 1-A, isopropyl ((S)-(((2R,3R,4R,5R)-5-(2-amino-6-(methylamino)-9H-purin-9-yl)-4-fluoro-3-hydroxy-4-methyltetrahydrofuran-2-yl)methoxy) (phenoxy)phosphoryl)-L-alaninate hemisulfate]
Appearance ([1]; 5 ± 3° C., 0 month): White
Assay ([1]; 5 ± 3° C., 0 month): 98.8%
IR ([1]; 5 ± 3° C., 0 month): correspond
Related Substance 1 Any other single impurity ([1]; 5 ± 3° C., 0 month): 0.01%
Related Substance 1 Total Impurities ([1]; 5 ± 3° C., 0 month): 0.01%
Water ([1]; 5 ± 3° C., 0 month): 0.45%
Appearance ([1]; 5 ± 3° C., 1st month): White
Assay ([1]; 5 ± 3° C., 1st month): 101.1%
Related Substance 1 Any other single impurity ([1]; 5 ± 3° C., 1st month): 0.01%
Related Substance 1 Total Impurities ([1]; 5 ± 3° C., 1st month): 0.01%
Water ([1]; 5 ± 3° C., 1st month): 0.19%
Appearance ([1]; 5 ± 3° C., 3rd month): White
Assay ([1]; 5 ± 3° C., 3rd month): 100.2%
IR ([1]; 5 ± 3° C., 3rd month): correspond
Related Substance 1 Any other single impurity ([1]; 5 ± 3° C., 3rd month): 0.01%
Related Substance 1 Impurity B ([1]; 5 ± 3° C., 3rd month): 0.01%
Related Substance 1 Total Impurities ([1]; 5 ± 3° C., 3rd month): 0.03%
Water ([1]; 5 ± 3° C., 3rd month): 0.32%
Appearance ([1]; 5 ± 3° C., 6th month): White
Assay ([1]; 5 ± 3° C., 6th month): 98.6%
IR ([1]; 5 ± 3° C., 6th month): correspond
Related Substance 1 Any other single impurity ([1]; 5 ± 3° C., 6th month): 0.01%
Related Substance 1 Total Impurities ([1]; 5 ± 3° C., 6th month): 0.03%
Water ([1]; 5 ± 3° C., 6th month): 0.42%
Appearance ([1]; 5 ± 3° C., 9th month): Off-white
Assay ([1]; 5 ± 3° C., 9th month): 101.4%
IR ([1]; 5 ± 3° C., 9th month): correspond
Related Substance 1 Any other single impurity ([1]; 5 ± 3° C., 9th month): 0.01%
Related Substance 1 Total Impurities ([1]; 5 ± 3° C., 9th month): 0.01%
Water ([1]; 5 ± 3° C., 9th month): 0.32%
total impurities of related substance 1 ([1]; after 9 months): 0.0100
water content ([1]; after 9 months): 0.3200
Chemical stability (conclusion) ([1]; refrigerator conditions): very chemically stable
active TP (metabolite 1-6) level in heart [2]: Relatively low levels
active TP (metabolite 1-6) level in liver [2]: High levels
Compound 1 Tmax ([3]; 30 mg/kg single oral dose): 30 to 120 min
Compound 1 Tmax ([3]; 100 mg/kg single oral dose): 60 to 120 min
vomiting (animals affected) ([3]; monkeys, high dose group): ⅕
viral load reduction (HCV; cirrhotic participants): 4.6 log 10 IU/mL
viral load reduction, individual (HCV; GT1b, listed as bemnifosbuvir): 4.0 log 10 IU/mL (2×) and 4.5 log 10 IU/mL
viral load reduction, individual (HCV; GT2): 5.0 log 10 IU/mL
viral load reduction, individual (HCV; GT3, listed as bemnifosbuvir): 4.8 log 10 IU/mL and 5.2 log 10 IU/mL
viral load reduction (HCV; non-cirrhotic participants): 4.5 log 10 IU/mL
mean maximum HCV RNA reduction (GT1 HCV [4]; 24 hours post-dose, single 100 mg dose): 0.8 log10 IU/mL
mean maximum HCV RNA reduction (GT1 HCV [4]; 24 hours post-dose, single 300 mg dose, GT1b): 1.7 log10 IU/mL
Mean Max Reduction of HCV RNA from baseline (GT1 HCV [4]; single dose, Compound 1-A equivalent of 92 mg Compound 1): 0.8 log10 IU/ml
Mean Max Reduction of HCV RNA from baseline (GT1 HCV [4]; single dose, Compound 1-A equivalent of 275 mg Compound 1): 1.7 log10 IU/ml
Mean Max Reduction of HCV RNA from baseline (GT1 HCV [4]; single dose, Compound 1-A equivalent of 368 mg Compound 1): 2.2 log10 IU/ml
Mean Max Reduction of HCV RNA from baseline (GT1 HCV [4]; single dose, Compound 1-A equivalent of 550 mg Compound 1): 2.3 log10 IU/ml
intensity of adverse effects (GT1 HCV [4]; Part B): mild to moderate
serious adverse events (GT1 HCV [4]; Part B, GT1-HCV infected patients, single dose): No serious adverse events
mean maximum HCV RNA reduction (GT1 HCV [4]; single 400 mg dose): 2.2 log10 IU/mL
individual maximum HCV RNA reductions (GT1 HCV [4]; single 600 mg dose, non-cirrhotic GT1b): 2.1 log10 IU/mL and 2.3 log10 IU/mL and 2.6 log10 IU/mL
mean maximum HCV RNA reduction (GT1 HCV [4]; single 600 mg dose, non-cirrhotic GT1b (n=3)): 2.3 log10 IU/mL
time within which the parent is metabolized (GT1 HCV [4]; single oral dose of Compound 1-A, plasma): ≤ 8 h
mean maximum HCV RNA reduction (GT3 HCV; 600 mg QD for 7 days, non-cirrhotic GT3): 4.6 log10 IU/mL and 4.5 log10 IU/mL
Mean Max Reduction (GT3 HCV; [7]): 4.5 log10 IU/mL
Mean Reduction After 24 hours (GT3 HCV; [7]): 2.4 log10 IU/mL
HCV RNA < LOQ (15 IU/mL) (GT3 HCV; 600 mg of Compound 1-A, GT3, non-cirrhotic (n = 6), subjects/total): 1/6
mean HCV RNA reduction (GT3 HCV; after the first dose of 600 mg, non-cirrhotic GT3): 2.4 log10 IU/mL
subjects achieving HCV RNA <LOQ (GT1 HCV [5]; 600 mg QD, non-cirrhotic GT1b, LOQ=15 IU/mL): 50%
Mean Max Reduction (GT1 HCV [5]; [8]): 4.4 log10 IU/mL
Mean Reduction After 24 hours (GT1 HCV [5]; [8]): 2.1 log10 IU/mL
HCV RNA < LOQ (15 IU/mL) (GT1 HCV [5]; 600 mg of Compound 1-A, GT1, non-cirrhotic (n = 6), subjects/total): 3/6
active TP (metabolite 1-6) level in heart [6]: unquantifiable levels
active TP (metabolite 1-6) level in liver [6]: High levels
